From the CheMixHub viscosity set

Assay: xn = mol fraction of the nth substance listed

CCCC(=O)OC + Clc1ccccc1
viscosity [mPa·s], 101.3 kPa
Conditions | 308.15 K | 318.15 K
x1 = 0.0851 | 0.648 | 0.601
x1 = 0.1025 | 0.647 | 0.6
x1 = 0.2257 | 0.63 | 0.588
x1 = 0.3019 | 0.621 | 0.58
x1 = 0.4004 | 0.607 | 0.567
x1 = 0.5036 | 0.593 | 0.552
x1 = 0.5911 | 0.58 | 0.54
x1 = 0.6834 | 0.564 | 0.527
x1 = 0.8223 | 0.541 | 0.504
x1 = 0.8997 | 0.525 | 0.489
x1 = 0.9522 | 0.515 | 0.479

CCNCC + CCCCCCCO
viscosity [mPa·s], 100 kPa
Conditions | x1 = 0.0806 | x1 = 0.1606 | x1 = 0.2415 | x1 = 0.3492 | x1 = 0.4394 | x1 = 0.5613 | x1 = 0.6506 | x1 = 0.7401 | x1 = 0.8503 | x1 = 0.9414
293.15 K | 6.26 | 5.55 | 4.87 | 4.03 | 3.37 | 2.55 | 2.02 | 1.52 | 0.947 | 0.532
303.15 K | 4.47 | 3.94 | 3.45 | 2.83 | 2.36 | 1.78 | 1.4 | 1.07 | 0.7 | 0.43
313.15 K | 3.3 | 2.91 | 2.53 | 2.07 | 1.72 | 1.3 | 1.03 | 0.79 | 0.52 | 0.35
323.15 K | 2.47 | 2.17 | 1.89 | 1.54 | 1.28 | 0.97 | 0.78 | 0.6 | 0.42 | 0.3

COCCOCCOCCO + CC(C)O
viscosity [mPa·s], 101 kPa
Conditions | x1 = 0.0079 | x1 = 0.0146 | x1 = 0.0314 | x1 = 0.0413 | x1 = 0.0581 | x1 = 0.0775 | x1 = 0.1025
298.15 K | 2.089 | 2.09 | 2.099 | 2.116 | 2.128 | 2.159 | 2.207
308.15 K | 1.568 | 1.574 | 1.594 | 1.608 | 1.628 | 1.683 | 1.706
318.15 K | 1.202 | 1.21 | 1.235 | 1.252 | 1.266 | 1.3 | 1.343

CC(C)(C)O + c1ccccc1
Conditions | viscosity [mPa·s]
298.15 K, 101 kPa, x1 = 0.0105 | 0.5986
298.15 K, 101 kPa, x1 = 0.02032 | 0.5966
298.15 K, 101 kPa, x1 = 0.02705 | 0.5958
298.15 K, 101 kPa, x1 = 0.03393 | 0.5954
298.15 K, 101 kPa, x1 = 0.04376 | 0.5954
298.15 K, 101 kPa, x1 = 0.05002 | 0.5954
298.15 K, 101 kPa, x1 = 0.06281 | 0.5966
298.15 K, 101 kPa, x1 = 0.07569 | 0.598
298.15 K, 101 kPa, x1 = 0.08395 | 0.5995
298.15 K, 101 kPa, x1 = 0.1597 | 0.6201
298.15 K, 101 kPa, x1 = 0.2472 | 0.6577
298.15 K, 101 kPa, x1 = 0.5139 | 0.886
298.15 K, 101 kPa, x1 = 0.9027 | 2.579
303 K, 101.3 kPa, x2 = 0.1001 | 2.487
303 K, 101.3 kPa, x2 = 0.2137 | 1.787
303 K, 101.3 kPa, x2 = 0.3033 | 1.395
303 K, 101.3 kPa, x2 = 0.4117 | 1.08
303 K, 101.3 kPa, x2 = 0.5129 | 0.8736
303 K, 101.3 kPa, x2 = 0.6126 | 0.7351
303 K, 101.3 kPa, x2 = 0.7187 | 0.6441
303 K, 101.3 kPa, x2 = 0.8046 | 0.6103
303 K, 101.3 kPa, x2 = 0.8998 | 0.5822
303.2 K, 101.33 kPa, x2 = 0.05 | 2.528
303.2 K, 101.33 kPa, x2 = 0.1 | 1.968
303.2 K, 101.33 kPa, x2 = 0.15 | 1.598
303.2 K, 101.33 kPa, x2 = 0.2 | 1.356
303.2 K, 101.33 kPa, x2 = 0.3 | 1.06
303.2 K, 101.33 kPa, x2 = 0.4 | 0.87
303.2 K, 101.33 kPa, x2 = 0.5 | 0.753
303.2 K, 101.33 kPa, x2 = 0.6 | 0.671
303.2 K, 101.33 kPa, x2 = 0.7 | 0.609
303.2 K, 101.33 kPa, x2 = 0.8 | 0.57
303.2 K, 101.33 kPa, x2 = 0.85 | 0.559
303.2 K, 101.33 kPa, x2 = 0.9 | 0.553
303.2 K, 101.33 kPa, x2 = 0.95 | 0.552

CCNCC + CCC(C)O
viscosity [mPa·s], 100 kPa
Conditions | 293.15 K | 298.15 K | 303.15 K | 308.15 K | 313.15 K | 318.15 K | 323.15 K
x1 = 0.0221 | 3.49 | 2.91 | 2.42 | 2.04 | 1.73 | 1.49 | 1.28
x1 = 0.081 | 3.02 | 2.54 | 2.12 | 1.82 | 1.55 | 1.34 | 1.18
x1 = 0.1601 | 2.49 | 2.11 | 1.8 | 1.56 | 1.33 | 1.16 | 1.049
x1 = 0.24 | 2.04 | 1.75 | 1.51 | 1.31 | 1.15 | 1.01 | 0.93
x1 = 0.3494 | 1.602 | 1.37 | 1.17 | 1.033 | 0.92 | 0.83 | 0.771
x1 = 0.4395 | 1.32 | 1.13 | 0.98 | 0.867 | 0.78 | 0.71 | 0.66
x1 = 0.5602 | 1.032 | 0.868 | 0.754 | 0.68 | 0.62 | 0.574 | 0.533
x1 = 0.65 | 0.827 | 0.712 | 0.628 | 0.57 | 0.528 | 0.489 | 0.459
x1 = 0.74 | 0.662 | 0.58 | 0.515 | 0.48 | 0.443 | 0.416 | 0.389
x1 = 0.8503 | 0.496 | 0.447 | 0.41 | 0.38 | 0.359 | 0.337 | 0.318
x1 = 0.94 | 0.384 | 0.356 | 0.335 | 0.309 | 0.298 | 0.284 | 0.268
x2 = 0.0129 | 0.336 | 0.317 | 0.3 | 0.284 | 0.27 | 0.257 | 0.244
